Data on eight compounds can be found in US9650395B2, “Antibacterial compounds and methods for use” (PTC Therapeutics, Inc., priority 2011, dated 2017).

In brackets after ≈: the same amount, converted by molar mass. Like-named read-outs stand apart in the source and are kept apart here.

Assay [1] has as its system Pseudomonas aeruginosa (P. aeruginosa) 27853. The assay can be described thus: Antibacterial activity, MIC, P. aeruginosa 27853. It is filed as cell-based. The following applies: Pseudomonas aeruginosa, P. aeruginosa 27853; read-out: MIC 27853. The text has this: (§1) The antibacterial activity from a microbroth dilution method may be presented as the minimum inhibitory concentration (MIC in […]). The MIC value is the lowest concentration of a drug which prevents macroscopically visible bacterial growth under test conditions.
Antibacterial activity of test compounds against the Gram-negative bacterium Pseudomonas aeruginosa (P. aeruginosa) 27853 is shown in Table 5.

Assay [2] deals with super sensitive Gram-negative Escherichia coli (E. coli) BAS849. The assay can be described thus: Antibacterial activity, microbroth dilution MIC, E. coli BAS849. Conditions: Escherichia coli, read-out: MIC, BAS849. It counts as cell-based.
The test system of assay [3] is Gram-positive Staphylococcus aureus (S. aureus) 29213. The experiment in a line: Antibacterial activity, microbroth dilution MIC, S. aureus 29213. It counts as cell-based. Conditions: Staphylococcus aureus; S. aureus 29213, microbroth dilution; read-out: MIC, 29213. (In general: Dilution methods test growth across graded concentrations, often in twofold steps.)
The test system of assay [4] is control Gram-negative E. coli 25922 strain. The assay can be described thus: Antibacterial activity, microbroth dilution MIC, E. coli 25922. It is filed as cell-based, Escherichia coli. Conditions: Escherichia coli; E. coli 25922, microbroth dilution; read-out: MIC, 25922.
Assay [5] has as its system E. coli ELZ4251 (MDR clinical isolate). The experiment in a line: Antibacterial activity, MIC, MDR E. coli ELZ4251. It counts as cell-based, Escherichia coli. Conditions: Escherichia coli, E. coli ELZ4251, MDR clinical isolate; read-out: MIC ELZ4251.
Assay [6] relates to E. coli ELZ4000 (MDR clinical isolate). The assay can be described thus: Antibacterial activity, MIC, MDR E. coli ELZ4000. It is filed as cell-based, Escherichia coli. Conditions: Escherichia coli; E. coli ELZ4000, MDR clinical isolate; read-out: MIC ELZ4000.
Assay [7] relates to quinolone resistant E. coli LZ3111. The assay can be described thus: Antibacterial activity, MIC, quinolone resistant E. coli LZ3111. It counts as cell-based, Escherichia coli. Conditions: Escherichia coli, read-out: MIC, LZ3111.
From the text: as §1
Mutations in these regions are known to confer a high level resistance to the quinolone class of antibiotics.

[8] abbreviates: E. coli BAS849, microbroth dilution.

One may read the MIC as the lowest concentration found to suppress growth. For the compound `CCc1c(-c2ccc(N3CC[C@H](F)C3)cc2)[nH]c(=O)c(C(=O)O)c1O` [Cpd 85, 5-ethyl-6-{4-[(3S)-3-fluoropyrrolidin-1-yl]phenyl}-4-hydroxy-2-oxo-1,2-dihydropyridine-3-carboxylic acid], the MIC in assay [1] is 12.5 to 150 µg/mL (≈ 36.1 to 433 µM); in assay [2] (setting [8]) it was < 1 µg/mL; in assay [3] it was 3.5 to 12.5 µg/mL (≈ 10.1 to 36.1 µM); in assay [4], 12.5 to 150 µg/mL (≈ 36.1 to 433 µM); in assay [5], 12.5 to 150 µg/mL (≈ 36.1 to 433 µM); in assay [6], 12.5 to 150 µg/mL (≈ 36.1 to 433 µM). In addition, the MIC in assay [7] lay in the range of 12.5 to 150 µg/mL (≈ 36.1 to 433 µM).

`CCc1cc(C(=O)O)c(=O)[nH]c1-c1ccc(N2CCC(N=[N+]=[N-])C2)cc1` (centres unmarked) [Cpd 129, 6-[4-(3-azidopyrrolidin-1-yl)phenyl]-5-ethyl-2-oxo-1,2-dihydropyridine-3-carboxylic acid]: the MIC in assay [1] is 12.5 to 150 µg/mL (≈ 35.4 to 424 µM); in assay [2] (setting [8]), < 1 µg/mL; in assay [3] it was 3.5 to 12.5 µg/mL (≈ 9.9 to 35.4 µM); in assay [4], 1 to 3.5 µg/mL (≈ 2.83 to 9.9 µM); in assay [5], 12.5 to 150 µg/mL (≈ 35.4 to 424 µM); in assay [6], 12.5 to 150 µg/mL (≈ 35.4 to 424 µM). Also, the MIC in assay [7] lay in the range of 12.5 to 150 µg/mL (≈ 35.4 to 424 µM).

As to `CCc1cc(C(=O)O)c(=O)[nH]c1-c1ccc(N2CCC(N)C2)cc1.O=C(O)C(F)(F)F` (centres unmarked) [Cpd 131, 6-[4-(3-aminopyrrolidin-1-yl)phenyl]-5-ethyl-2-oxo-1,2-dihydropyridine-3-carboxylic acid trifluoroacetate], the minimum inhibitory concentration (MIC) in assay [1] is 12.5 to 150 µg/mL; in assay [2] it was < 1 µg/mL; in assay [3], 12.5 to 150 µg/mL; in assay [4], 3.5 to 12.5 µg/mL; in assay [5], 12.5 to 150 µg/mL; in assay [6], 12.5 to 150 µg/mL. The minimal inhibitory concentration (MIC) in assay [7] is 12.5 to 150 µg/mL.

Take `CCc1cc(C(=O)O)c(=O)[nH]c1-c1ccc(N2CCCC2C)cc1` (centres unmarked) [Cpd 139, 5-ethyl-6-[4-(2-methylpyrrolidin-1-yl)phenyl]-2-oxo-1,2-dihydropyridine-3-carboxylic acid]: the MIC in assay [1] was 12.5 to 150 µg/mL (≈ 38.3 to 460 µM); in assay [2] (setting [8]), < 1 µg/mL; in assay [3], 3.5 to 12.5 µg/mL (≈ 10.7 to 38.3 µM); in assay [4], 3.5 to 12.5 µg/mL (≈ 10.7 to 38.3 µM); in assay [5], 12.5 to 150 µg/mL (≈ 38.3 to 460 µM); in assay [6], 12.5 to 150 µg/mL (≈ 38.3 to 460 µM). The minimal inhibitory concentration (MIC) in assay [7] is 12.5 to 150 µg/mL (≈ 38.3 to 460 µM).

On to `CCc1cc(C(=O)O)c(=O)[nH]c1-c1ccc(N2CCC(N(C)C)C2)cc1` (centres unmarked) [Cpd 149, 6-{4-[3-(dimethylamino)pyrrolidin-1-yl]phenyl}-5-ethyl-2-oxo-1,2-dihydropyridine-3-carboxylic acid], for which the minimal inhibitory concentration (MIC) in assay [1] was 12.5 to 150 µg/mL (≈ 35.2 to 422 µM); in assay [2] (setting [8]) it was < 1 µg/mL; in assay [3], 12.5 to 150 µg/mL (≈ 35.2 to 422 µM); in assay [4], 1 to 3.5 µg/mL (≈ 2.81 to 9.85 µM); in assay [5] it was 12.5 to 150 µg/mL (≈ 35.2 to 422 µM); in assay [6] it was 12.5 to 150 µg/mL (≈ 35.2 to 422 µM). In addition, the MIC in assay [7] fell in the range of 12.5 to 150 µg/mL (≈ 35.2 to 422 µM).

For `CCc1cc(C(=O)O)c(=O)[nH]c1-c1ccc(N2CCC(F)C2)cc1` (centres unmarked) [Cpd 152, 5-ethyl-6-[4-(3-fluoropyrrolidin-1-yl)phenyl]-2-oxo-1,2-dihydropyridine-3-carboxylic acid], the MIC is 3.5 to 12.5 µg/mL (≈ 10.6 to 37.8 µM) in assay [1]; < 1 µg/mL in assay [2] (setting [8]); 3.5 to 12.5 µg/mL (≈ 10.6 to 37.8 µM) in assay [3]; 1 to 3.5 µg/mL (≈ 3.03 to 10.6 µM) in assay [4]; 12.5 to 150 µg/mL (≈ 37.8 to 454 µM) in assay [5]; 12.5 to 150 µg/mL (≈ 37.8 to 454 µM) in assay [6]. Also, the MIC in assay [7] lay in the range of 12.5 to 150 µg/mL (≈ 37.8 to 454 µM).

For `CCc1cc(C(=O)O)c(=O)[nH]c1-c1ccc(N2CC[C@H](F)C2)cc1` [Cpd 153, 5-ethyl-6-{4-[(3S)-3-fluoropyrrolidin-1-yl]phenyl}-2-oxo-1,2-dihydropyridine-3-carboxylic acid], the MIC in assay [1] was 3.5 to 12.5 µg/mL (≈ 10.6 to 37.8 µM); in assay [2] (setting [8]), < 1 µg/mL; in assay [3], 1 to 3.5 µg/mL (≈ 3.03 to 10.6 µM); in assay [4], < 1 µg/mL; in assay [5] it was 12.5 to 150 µg/mL (≈ 37.8 to 454 µM); in assay [6], 12.5 to 150 µg/mL (≈ 37.8 to 454 µM). Further, in assay [7], the MIC lay in the range of 12.5 to 150 µg/mL (≈ 37.8 to 454 µM).

For `CCc1cc(C(=O)O)c(=O)[nH]c1-c1ccc(N(C)c2ccccc2)cc1` [Cpd 158, 5-ethyl-6-{4-[methyl(phenyl)amino]phenyl}-2-oxo-1,2-dihydropyridine-3-carboxylic acid], the minimum inhibitory concentration (MIC) in assay [1] was 12.5 to 150 µg/mL (≈ 35.9 to 431 µM); in assay [2] (setting [8]), < 1 µg/mL; in assay [3] it was 3.5 to 12.5 µg/mL (≈ 10 to 35.9 µM); in assay [4], 3.5 to 12.5 µg/mL (≈ 10 to 35.9 µM); in assay [5], 12.5 to 150 µg/mL (≈ 35.9 to 431 µM); in assay [6], 12.5 to 150 µg/mL (≈ 35.9 to 431 µM). Besides, the minimum inhibitory concentration (MIC) in assay [7] is 12.5 to 150 µg/mL (≈ 35.9 to 431 µM).
